ChEMBL document CHEMBL2169808, “Discovery of pyrazole carboxylic acids as potent inhibitors of rat long chain L-2-hydroxy acid oxidase” (Bioorg Med Chem Lett, 2012)

Tests used:
2-Hydroxyacid oxidase 2 = target: T1, 2-Hydroxyacid oxidase 2 (Rattus norvegicus, UniProt Q07523); assay: Inhibition of rat Hao2-mediated oxidation of 2-hydroxyoctanoic acid assessed as proportionate release of H2O2
T1 sequence (Q07523 whole entry): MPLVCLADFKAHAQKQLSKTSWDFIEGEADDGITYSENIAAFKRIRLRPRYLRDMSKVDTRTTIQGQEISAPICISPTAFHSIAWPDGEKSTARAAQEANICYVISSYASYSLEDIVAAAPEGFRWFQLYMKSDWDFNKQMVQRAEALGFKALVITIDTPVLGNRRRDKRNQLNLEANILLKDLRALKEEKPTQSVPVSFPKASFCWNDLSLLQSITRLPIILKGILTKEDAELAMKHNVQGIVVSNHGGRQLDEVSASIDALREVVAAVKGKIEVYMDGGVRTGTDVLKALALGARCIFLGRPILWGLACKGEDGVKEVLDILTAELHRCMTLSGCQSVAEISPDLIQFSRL

[1] = target: T2, 2-Hydroxyacid oxidase 2 (Rattus norvegicus) (UniProt Q07523); assay: Inhibition of rat Hao2-mediated oxidation of 2-hydroxyoctanoic acid assessed as proportionate release of H2O2 at 10 uM
T2 sequence (whole entry): T1 sequence (Q07523 whole entry)

[2] = target: T3, 2-Hydroxyacid oxidase 2 (Homo sapiens) (UniProt Q9NYQ3); assay: Inhibition of human Hao2-mediated oxidation of 2-hydroxyoctanoic acid assessed as proportionate release of H2O2 at 10 uM
T3 sequence (whole entry): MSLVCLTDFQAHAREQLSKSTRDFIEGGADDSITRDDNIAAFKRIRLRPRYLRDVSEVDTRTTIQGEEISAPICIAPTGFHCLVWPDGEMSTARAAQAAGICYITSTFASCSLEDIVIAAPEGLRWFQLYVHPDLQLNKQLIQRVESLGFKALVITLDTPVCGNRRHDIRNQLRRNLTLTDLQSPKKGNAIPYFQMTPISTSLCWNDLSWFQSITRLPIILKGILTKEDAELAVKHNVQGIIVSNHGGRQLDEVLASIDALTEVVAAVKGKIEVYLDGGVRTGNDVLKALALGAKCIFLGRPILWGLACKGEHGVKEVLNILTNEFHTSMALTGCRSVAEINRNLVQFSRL

[3] = target: T3, 2-Hydroxyacid oxidase 2 (Homo sapiens); assay: Inhibition of human Hao2-mediated oxidation of 2-hydroxyoctanoic acid assessed as proportionate release of H2O2 at 1 uM
[4] = target: T2, 2-Hydroxyacid oxidase 2 (Rattus norvegicus); assay: Inhibition of rat Hao2-mediated oxidation of 2-hydroxyoctanoic acid assessed as proportionate release of H2O2 at 1 uM
Rattus norvegicus = organism: Rattus norvegicus; assay: Selectivity ratio of IC50 for rat Hao1 to IC50 for rat Hao2

Row | Compound | IC50 (2-Hydroxyacid oxidase 2) [nM] | inhibition [1] [%] | inhibition [2] [%] | inhibition [3] [%] | inhibition [4] [%] | Ratio IC50 (Rattus norvegicus)
1 | Cc1[nH]nc(C(=O)O)c1Cc1cccc(-c2cccc(F)c2)c1 | 500 | – | – | – | – | –
2 | Cc1n[nH]c(C(=O)Nc2nnn[nH]2)c1Cc1cccc(-c2ccc(F)cc2)c1 | – | 9 | 0 | 0 | 0 | –
3 | Cc1nn(C)c(C(=O)O)c1Cc1cccc(-c2ccc(F)cc2)c1 | – | 10 | 3 | 5 | 4 | –
4 | Cc1n[nH]c(C(N)=O)c1Cc1cccc(-c2ccc(F)cc2)c1 | – | – | 14 | 1 | – | –
5 | Cc1[nH]nc(C(=O)O)c1Cc1cccc2ccccc12 | 200 | – | – | – | – | –
6 | Cc1n[nH]c(C(=O)O)c1CCc1ccc(-c2ccc(F)cc2)cc1 | 900 | – | 39 | 5 | – | > 150
7 | Cc1[nH]nc(C(=O)O)c1Cc1ccc(C(N)=O)cc1 | 1100 | – | – | – | – | –
8 | Cc1[nH]nc(C(=O)O)c1Cc1ccc(-c2ccc(F)cc2)cc1 | 400 | – | – | – | – | –
9 | Cc1[nH]nc(C(=O)O)c1Cc1ccc(-c2ccc(C(F)(F)F)cc2)cc1 | 1100 | – | – | – | – | –
10 | O=C(O)c1n[nH]c(CCc2ccccc2)c1Cc1cccc(-c2ccc(F)cc2)c1 | 800 | – | – | – | – | –
11 | Cc1n[nH]c(C(=O)O)c1Cc1ccc(-c2ccc(F)cc2)cc1 | – | – | 25 | 11 | – | > 150
12 | Cc1[nH]nc(C(=O)O)c1Cc1cccc(-c2ccc(CC(=O)O)cc2)c1 | 400 | – | – | – | – | –
13 | Cc1[nH]nc(C(=O)O)c1Cc1cccc(-c2ccc(C(F)(F)F)cc2)c1 | 400 | – | – | – | – | –
14 | O=C(O)c1n[nH]c(Cc2ccccc2)c1Cc1cccc(-c2ccc(F)cc2)c1 | 700 | – | – | – | – | –
15 | Cc1n[nH]c(C(=O)O)c1Cc1ccc(-c2ccc(C(F)(F)F)cc2)cc1 | – | – | 14 | 5 | – | > 150
16 | Cc1n[nH]c(C(=O)NS(C)(=O)=O)c1Cc1cccc(-c2ccc(F)cc2)c1 | – | 3 | 8 | 8 | 0 | –
17 | Cc1n[nH]c(C(=O)O)c1Cc1ccc(-c2ccc(OC(F)(F)F)cc2)cc1 | – | – | 29 | 11 | – | > 150
18 | Cc1[nH]nc(C(=O)O)c1Cc1ccc(Oc2ccccc2)cc1 | 500 | – | – | – | – | –

Row | Compound | IC50 (2-Hydroxyacid oxidase 2) [nM] | inhibition [1] [%] | inhibition [2] [%] | inhibition [3] [%] | inhibition [4] [%] | Ratio IC50 (Rattus norvegicus)
19 | Cc1[nH]nc(C(=O)O)c1Cc1ccccc1C(F)(F)F | 1300 | – | – | – | – | –
20 | Cc1c(Cc2cccc(-c3ccc(F)cc3)c2)c(C(=O)O)nn1C | – | 57 | 4 | 2 | 12 | –
21 | Cc1[nH]nc(C(=O)O)c1Cc1ccc(F)cc1 | 700 | – | – | – | – | –
22 | CCOc1n[nH]c(C(=O)O)c1Cc1cccc(-c2ccc(F)cc2)c1 | – | – | 17 | 1 | – | > 150
23 | CCOc1[nH]nc(C(=O)O)c1Cc1cccc(-c2ccc(F)cc2)c1 | 1200 | – | – | – | – | –
24 | Cc1[nH]nc(C(=O)O)c1Cc1cccc(-c2cccnc2)c1 | 400 | – | – | – | – | –
25 | CNC(=O)c1[nH]nc(C)c1Cc1cccc(-c2ccc(F)cc2)c1 | – | 53 | 19 | 7 | 9 | –
26 | O=C(O)c1[nH]nc(-c2ccccc2)c1Cc1cccc(-c2ccc(F)cc2)c1 | 1800 | – | 14 | 1 | – | > 150
27 | CC(C)c1n[nH]c(C(=O)O)c1Cc1cccc(-c2ccc(F)cc2)c1 | 500 | – | 11 | 2 | – | > 150
28 | Cc1n[nH]c(C(=O)O)c1-c1ccc(F)cc1 | – | – | 13 | 3 | 1 | > 150
29 | CCc1[nH]nc(C(=O)O)c1Cc1cccc(-c2ccc(F)cc2)c1 | 300 | – | – | – | – | –
30 | CCc1n[nH]c(C(=O)O)c1Cc1cccc(-c2ccc(F)cc2)c1 | – | – | 36 | 5 | – | > 150
31 | O=C(O)c1[nH]nc(Cc2ccccc2)c1Cc1cccc(-c2ccc(F)cc2)c1 | – | – | 8 | 10 | – | > 150
32 | Cc1[nH]nc(C(=O)O)c1Cc1ccc(-c2ccc(OC(F)(F)F)cc2)cc1 | 2000 | – | – | – | – | –
33 | O=C(O)c1[nH]nc(CCc2ccccc2)c1Cc1cccc(-c2ccc(F)cc2)c1 | – | – | 16 | 4 | – | > 150
34 | Cc1[nH]nc(C(=O)O)c1Cc1cccc(C(F)(F)F)c1 | 300 | – | – | – | – | –
35 | Cc1[nH]nc(C(N)=O)c1Cc1cccc(-c2ccc(F)cc2)c1 | 1400 | – | – | – | – | –

Other lines, results leading:

Row | IC50 (2-Hydroxyacid oxidase 2) [nM] | inhibition [1] [%] | inhibition [2] [%] | inhibition [3] [%] | inhibition [4] [%] | Ratio IC50 (Rattus norvegicus) | Compound
36 | – | – | 23 | 5 | – | > 150 | Cc1n[nH]c(C(=O)O)c1Cc1cccc(C(F)(F)F)c1
37 | 900 | – | 45 | 9 | – | > 150 | Cc1n[nH]c(C(=O)O)c1CCc1cccc(-c2ccc(F)cc2)c1
38 | 200 | – | 13 | 1 | – | > 150 | Cc1n[nH]c(C(=O)O)c1Cc1cccc(F)c1
39 | – | – | 46 | 13 | – | > 150 | Cc1n[nH]c(C(=O)O)c1Cc1cccc(-c2ccc(C#N)cc2)c1
40 | 300 | – | – | – | – | – | Cc1[nH]nc(C(=O)O)c1Cc1cccc(-c2ccc(C#N)cc2)c1
41 | – | – | 8 | 8 | – | > 150 | Cc1n[nH]c(C(=O)O)c1Cc1cccc(C(N)=O)c1
42 | – | – | 50 | 20 | – | > 150 | Cc1n[nH]c(C(=O)O)c1Cc1cccc(-c2cccc(F)c2)c1
43 | 300 | – | 34 | 6 | – | > 150 | Cc1n[nH]c(C(=O)O)c1Cc1cccc(-c2ccc(OC(F)(F)F)cc2)c1
44 | 300 | – | 49 | 13 | – | > 150 | Cc1n[nH]c(C(=O)O)c1Cc1cccc(-c2ccncc2)c1
45 | – | – | 30 | 8 | – | > 150 | Cc1n[nH]c(C(=O)O)c1Cc1cccc(-c2ccc(C(F)(F)F)cc2)c1
46 | – | – | 38 | 13 | – | > 150 | Cc1n[nH]c(C(=O)O)c1Cc1ccccc1C(F)(F)F
47 | 500 | – | – | – | – | – | Cc1[nH]nc(C(=O)O)c1Cc1cccc(C#N)c1
48 | – | – | 19 | 6 | – | > 150 | Cc1n[nH]c(C(=O)O)c1Cc1cccc(C#N)c1
49 | – | – | 55 | 16 | – | > 150 | Cc1n[nH]c(C(=O)O)c1Cc1cccc(-c2ccc(F)cc2)c1
50 | – | – | 14 | 7 | – | > 150 | Cc1n[nH]c(C(=O)O)c1Cc1ccc(F)cc1
51 | 900 | – | 22 | 5 | – | > 150 | Cc1n[nH]c(C(=O)O)c1Cc1cccc(-c2ccccc2F)c1
52 | 200 | – | 60 | 18 | – | > 150 | Cc1n[nH]c(C(=O)O)c1Cc1cccc(-c2ccc(C(N)=O)cc2)c1
53 | 600 | – | 41 | 12 | – | > 150 | Cc1n[nH]c(C(=O)O)c1Cc1cccc(Oc2ccccc2)c1
54 | – | – | 29 | 8 | – | > 150 | Cc1n[nH]c(C(=O)O)c1Cc1cc2ccccc2s1
55 | 900 | – | – | – | – | – | Cc1[nH]nc(C(=O)O)c1Cc1cccc(C(N)=O)c1
56 | – | – | 8 | 0 | – | > 150 | Cc1n[nH]c(C(=O)O)c1Cc1ccc(C(N)=O)cc1
57 | 1100 | – | 15 | 3 | – | > 150 | Cc1n[nH]c(C(=O)O)c1Cc1cccc(-c2ccc(C(=O)O)cc2)c1
58 | – | – | 59 | 22 | – | > 150 | Cc1n[nH]c(C(=O)O)c1Cc1cccc2ccccc12
59 | – | – | 21 | 2 | – | > 150 | Cc1n[nH]c(C(=O)O)c1Cc1cccc(-c2ccc(CC(=O)O)cc2)c1
60 | – | – | 45 | 13 | – | > 150 | Cc1n[nH]c(C(=O)O)c1Cc1cccc(-c2cccnc2)c1
61 | 700 | – | 26 | 2 | – | > 150 | Cc1n[nH]c(C(=O)O)c1Cc1cccc(OC(F)(F)F)c1
62 | 1300 | – | 34 | 7 | – | > 150 | Cc1n[nH]c(C(=O)O)c1Cc1ccc(OC(F)(F)F)cc1
63 | – | – | 43 | 10 | – | > 150 | Cc1n[nH]c(C(=O)O)c1Cc1ccc(Oc2ccccc2)cc1
64 | 1700 | – | 18 | 2 | – | > 150 | Cc1n[nH]c(C(=O)O)c1Cc1ccc2ccccc2n1
65 | 1100 | – | 12 | 8 | – | > 150 | Cc1n[nH]c(C(=O)O)c1Cc1ccc2ccccc2c1
